Source: patent publication US9296755B2, “3,4-dihydro-1H-pyrimido[1,6-a]pyrimidin-6(2H)-one compounds and their therapeutic applications” (GlaxoSmithKline Intellectual Property Development Limited, priority 2013, dated 2016)

How the values were obtained:
[1] = system: rat EAE model; assay: Rat experimental autoimmune encephalomyelitis (EAE) model, preventive treatment; type: in vivo; settings: MBP immunization, administered day 0 to day 22
Procedure: (§1) A further study was carried out to study the impact of Lp-PLA2 inhibitors on modulating M1/M2 imbalance. In this study, rats were induced to develop experimental autoimmune encephalomyelitis (EAE) by immunization with myelin basic protein (MBP) antigen and treated with a known Lp-PLA2 inhibitor: 5-((9-Methoxy-4-oxo-6,7-dihydro-4H-pyrimido[6,1-a]isoquinolin-2-yl)oxy)-2-(3-(trifluoromethyl)phenoxy)benzonitrile (See PCT application no. PCT/CN2011/001597). In this preventive treatment model, the compound was administered at day 0 (day of immunization) and continued to administer until day 22. The study lasted for 25 days. Rats were subsequently monitored for symptoms of EAE. Rats were immunized with MBP to develop EAE and symptoms were monitored daily. Plasma Lp-PLA2 activity, OxLDL, and LysoPC concentration were determined at different time points through the course of EAE.

[2] = system: proinflammatory (M1) and anti-inflammatory (M2) markers; assay: Ex vivo analysis of M1 and M2 markers in macrophages of EAE rats by realtime PCR; set-up: species or system rat; settings: splenic macrophages day 13 post MBP-immunization and CNS infiltrating macrophages
Procedure: Ex vivo analysis of proinflammatory (M1) and anti-inflammatory (M2) markers in control and compound treated EAE rats. Splenic macrophages were harvested at day 13 post MBP-immunization and assayed for expression of a variety of markers by realtime PCR. CNS infiltrating cells were harvested and macrophages were analyzed for expression of M1 and M2 markers by realtime PCR.

[3] = system: Lp-PLA2; assay: Plasma Lp-PLA2 activity and LysoPC in rat EAE plasma; type: in vivo
Procedure: as §1

[4] = target: T1, Lp-PLA2 (Rattus norvegicus, UniProt A6JJ35); assay: as above; type: in vivo
T1 construct: from tissue; host or cells: plasma of EAE rats
T1 sequence (A6JJ35 22-440): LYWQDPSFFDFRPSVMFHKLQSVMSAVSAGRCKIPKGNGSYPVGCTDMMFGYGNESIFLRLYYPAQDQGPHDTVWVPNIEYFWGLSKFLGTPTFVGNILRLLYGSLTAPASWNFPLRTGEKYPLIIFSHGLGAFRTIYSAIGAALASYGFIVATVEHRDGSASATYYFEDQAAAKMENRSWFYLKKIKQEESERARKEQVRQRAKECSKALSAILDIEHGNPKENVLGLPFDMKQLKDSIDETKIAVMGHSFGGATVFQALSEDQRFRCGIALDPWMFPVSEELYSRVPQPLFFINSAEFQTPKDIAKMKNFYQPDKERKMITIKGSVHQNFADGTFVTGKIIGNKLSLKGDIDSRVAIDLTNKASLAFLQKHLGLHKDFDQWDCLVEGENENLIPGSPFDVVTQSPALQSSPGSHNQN
Procedure: as §1

[5] = target: Recombinant human PLA2 VIIB (Homo sapiens, UniProt Q99487); assay: PLA2 VIIB assay; type: biochemical
Source text: PLA2 VIIB (also known as Novel Serine Dependent Lipase, NSDL) is a serine hydrolase with 40% amino acid identity with human Lp-PLA2. Sequence comparisons indicate that the PLA VIIB active site catalytic triad positions are similar to those of Lp-PLA2. Similar to Lp-PLA2, it is capable of hydrolyzing oxidatively modified phospholipids and may be assayed using known Lp-PLA2 substrates.
Upon cleavage by a phopholipase, […] liberates a fluorescent Bodipy group. Recombinant human PLA2 VIIB is used as the phospholipase source in this assay, and compounds are screened to test their degree of inhibition in this assay. The assay is used to determine the degree of selectivity of the testing compounds between PLA2 VIIB and Lp-PLA2.
The PLA2 VIIB assay was applied as an unquenched 10 μL assay. The source plate containing the compounds is prepared by making 1:3 (by volume) serial dilution of the compounds with pure DMSO on 384-well microplate. 0.01 μL of compounds on the compound source plate were transferred into 384 well Greiner 784076 (black) plates by ECHO liquid dispenser. 5 μL of Novel Serine Dependent Lipase (NSDL) enzyme (5 nM NSDL in assay buffer of 50 mM HEPES, pH 7.4, 150 mM NaCl, 1 mM CHAPS) was added to each well. […] Plates were kinetic read by starting read immediately after PED6 addition at ex: 480/em:540 using ViewLux microplate reader or Envision spectrofluorimeters. […]

Row | SMILES | clinical disease (EAE) [1] | M1 markers [2] | M2 markers [2] | LysoPC levels in rat EAE plasma [3] | Lp-PLA2 activity in rat EAE plasma [4] | selectivity between human recombinant Lp-PLA2 and PLA2 VIIB [5] [fold]
1 | COc1ccc2c(c1)CCn1c-2cc(Oc2ccc(Oc3cccc(C(F)(F)F)c3)c(C#N)c2)nc1=O [5-((9-Methoxy-4-oxo-6,7-dihydro-4H-pyrimido[6,1-a]isoquinolin-2-yl)oxy)-2-(3-(trifluoromethyl)phenoxy)benzonitrile] | reduction in clinical disease | decrease | increase | decreased | decreased | 
2 | Cc1ccccc1CN1CCCn2c1cc(OCc1ccc(F)c(F)c1)nc2=O [Example E7, 8-((3,4-difluorobenzyl)oxy)-1-(2-methylbenzyl)-3,4-dihydro-1H-pyrimdo[1,6-a]pyrimidin-6(2H)-one] |  |  |  |  |  | ≤ 100
